# PubChem BioAssay (NCI)
#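 1) Cells in 96-well plates. 2) Compound, 48 h, 5 concentrations. 3) Linear interpolation between surrounding doses. 4) Unreached endpoint = highest concentration. GI50 is the concentration that inhibits growth by half. At the TGI there is no net growth.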
# Key:
# Test in all cases: inhibition of tumour cell growth, NCI panel, 48 h
# COLO 205 colon = test system: COLO 205 colon
# DLD-1 colon = test system: DLD-1 colon
# DMS 114 small cell lung = test system: DMS 114 small cell lung
# DU-145 prostate = test system: DU-145 prostate
# HCC-2998 colon = test system: HCC-2998 colon
# HCT-116 colon = test system: HCT-116 colon
# HL-60(TB) leukemia = test system: HL-60(TB) leukemia
# HOP-62 NSCLC = test system: HOP-62 NSCLC
# HT29 colon = test system: HT29 colon
# KM20L2 colon = test system: KM20L2 colon
# M19-MEL melanoma = test system: M19-MEL melanoma
# OVCAR-8 ovarian = test system: OVCAR-8 ovarian
# SK-MEL-2 melanoma = test system: SK-MEL-2 melanoma
# SNB-78 CNS = test system: SNB-78 CNS
# SW-620 colon = test system: SW-620 colon
# UO-31 renal = test system: UO-31 renal
# DMS 273 small cell lung = test system: DMS 273 small cell lung
Compound,TGI (COLO 205 colon) [µM],TGI (DLD-1 colon) [µM],TGI (DMS 114 small cell lung) [µM],TGI (DU-145 prostate) [µM],TGI (HCC-2998 colon) [µM],TGI (HCT-116 colon) [µM],TGI (HL-60(TB) leukemia) [µM],TGI (HOP-62 NSCLC) [µM],TGI (HT29 colon) [µM],TGI (KM20L2 colon) [µM],TGI (M19-MEL melanoma) [µM],TGI (OVCAR-8 ovarian) [µM],TGI (SK-MEL-2 melanoma) [µM],TGI (SNB-78 CNS) [µM],TGI (SW-620 colon) [µM],TGI (UO-31 renal) [µM],TGI (DMS 273 small cell lung) [µM],GI50 (HOP-62 NSCLC) [µM]
O=C(Nc1nn[nH]n1)c1nc(-c2ccccc2)cc(=O)[nH]1,> 100,> 100,> 100,> 100,> 100,> 100,> 100,> 100,> 100,> 100,> 100,> 100,> 100,> 100,> 100,> 100,,
O=c1c2ccccc2nc2ccc3c(Cl)[nH][nH]c3c12,> 100,> 100,> 100,,> 100,> 100,> 100,> 100,> 100,> 100,> 100,> 100,> 100,> 100,> 100,> 92.2,> 100,
COc1ccc(Oc2ccccc2N)cc1,35.4,> 100,> 100,,57.1,> 100,> 100,> 100,> 100,> 100,> 100,> 100,> 100,> 100,> 100,> 100,> 100,
CSc1cnc2ccccc2c1Sc1c[nH]c2ccccc2c1=O,22.7,> 80.7,32.9,,29.5,28.7,18,43.6,15.1,15.9,34.6,34.4,34.6,> 100,> 32.3,45.1,> 45.5,
NCCSCCC(=O)O,> 74.3,,,> 100,98.4,> 100,> 100,> 100,> 100,,,> 100,> 100,,> 100,> 100,,
CCOC(=O)C1=C(O)c2ccc(C)cc2C(=O)C1=O,> 100,> 100,> 100,,> 100,> 100,> 100,> 100,> 100,> 100,32.3,> 100,> 100,> 100,> 100,> 100,> 100,
CC(=O)OC[C@H]1On2nnnc2[C@H](OC(C)=O)[C@@H](OC(C)=O)[C@@H]1OC(C)=O,> 100,,,> 100,> 100,> 100,> 100,> 100,> 100,,,> 100,> 100,,> 100,> 100,,
CC1CCC2(OC1)OC1C(O)C3C4CCC5CC(OC6OC(CO)C(OC7OC(CO)C(O)C(OC8OCC(O)C(O)C8O)C7OC7OC(CO)C(O)C(OC8OC(CO)C(O)C(O)C8O)C7O)C(O)C6O)C(O)CC5(C)C4CCC3(C)C1C2C (stereo not given),3.6,,,4.63,4.69,3.36,7.21,3.92,11.8,,,4.21,17.8,,98.4,3.66,,
CC(C)=CCC[C@@H](C)C1=C(O)C(Nc2ccccc2I)=C(C)C(=O)C1=O,33.1,,,69.2,56.7,34.8,4.39,23.1,28,,,> 32.2,29.4,,> 75,35.7,,
COc1cccc(C2c3cc4c(cc3OC(Nc3ccccc3)C2C)OCO4)c1O (stereo not given),> 35.6,,,> 53.9,36.3,36,> 23.9,36.9,37.7,,,35.7,51.9,,36.8,32.4,,
O=c1c2nc(-c3ccccc3)oc2n(-c2ccccc2)c(=O)n1-c1ccccc1,> 46.4,,,> 100,> 46.4,> 46.4,> 100,29.7,> 46.4,,,44.6,> 46.4,,> 46.4,> 31.6,,
CCOC(=O)c1cc(Br)c(-c2onc(C)c2Br)[nH]1,> 100,,,> 100,> 100,> 100,> 100,49.9,> 100,,,82.6,> 100,,> 100,> 100,,
COc1cc2c(c(OC)c1OC)-c1ccc(SC)c(=O)cc1[C@@H](NCc1ccc([N+](=O)[O-])cc1)CC2,0.0145,> 100,0.00735,,0.0105,,1.49,> 100,0.011,0.00435,> 100,,19,> 100,> 100,> 100,1.06,0.429
Clc1ccc(C2=CCN3CC=C(c4ccc(Cl)cc4)C23)cc1,6.28,,,29.2,11.3,19.2,19.7,26.7,17.8,,,29.4,29.6,,26,20,,
Nc1c(S(=O)(=O)O)cc(S(=O)(=O)O)c2ccc(N=Nc3ccc(/C=C/c4ccc(N=Nc5ccc6c(S(=O)(=O)O)cc(S(=O)(=O)O)c(N)c6c5O)cc4S(=O)(=O)O)c(S(=O)(=O)O)c3)c(O)c12,> 100,> 100,> 100,,> 100,> 100,> 100,> 100,> 100,> 100,> 100,> 100,> 100,> 100,> 100,> 100,> 100,
CC1(C)O[C@@H](C[C@]2(C#N)C[C@H](CCl)OC(C)(C)O2)C[C@@H](C#N)O1,> 100,> 100,> 100,,> 100,> 100,> 100,> 100,> 100,> 100,> 100,> 100,> 100,> 100,> 100,> 100,> 100,
